Laboratory results taken from patent US9409905B2, “Antibacterial compounds and methods for use” (PTC THERAPEUTICS, INC., priority 2011, dated 2016).
In brackets after ≈: the same amount, converted by molar mass.

What was measured:
[1] = tested on: Klebsiella pneumoniae (K. pneumoniae) 35657; assay: Antibacterial activity, MIC (Table 4); assay type: cell-based; conditions: K. pneumoniae 35657, read-out: MIC, 35657
How it was run: (§1)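 Broth microdilution; MIC (μg/mL) = lowest concentration with no macroscopically visible growth. Resistant strains: multi-drug resistant clinical isolates.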

[2] = tested on: Acinetobacter baumannii (A. baumannii) BAA747; assay: Antibacterial activity, MIC (Table 4); assay type: cell-based; conditions: A. baumannii BAA747, read-out: MIC, BAA747
How it was run: as §1

E. coli LZ3111 = assay: Antibacterial activity, MIC, quinolone resistant strain (Table 2); assay type: cell-based; conditions: Escherichia coli, LZ3111, read-out: MIC LZ3111
How it was run: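 Broth microdilution. Read-out: MIC in μg/mL, taken as lowest concentration with no macroscopically visible growth.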

[3] = tested on: Haemophilus influenzae (H. influenzae) 49247; assay: Antibacterial activity, MIC (Table 6); assay type: cell-based
How it was run: (§2)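 Values are minimum inhibitory concentrations in μg/mL, read as the lowest compound concentration at which no growth is visible to the eye. Testing used a microbroth dilution format.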

E. coli 25922 = assay: Antibacterial activity, microbroth dilution MIC (Table 1); assay type: cell-based, Escherichia coli; conditions: Escherichia coli; microbroth dilution; control Gram-negative E. coli 25922 strain; read-out: MIC, 25922
How it was run: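 Lowest concentration stopping macroscopically visible growth under test conditions, by broth microdilution, defines the MIC (μg/mL).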

[4] = tested on: Staphylococcus aureus (S. aureus) 29213; assay: as above; assay type: cell-based; conditions: microbroth dilution, Gram-positive S. aureus 29213, read-out: MIC, 29213
How it was run: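 Microbroth dilution was used. MIC, in μg/mL, is the lowest drug concentration preventing macroscopically visible growth under the test conditions.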

[5] = tested on: Escherichia coli (E. coli) BAS849; assay: as above; assay type: cell-based; conditions: microbroth dilution, super sensitive Gram-negative E. coli BAS849, read-out: MIC, BAS849
How it was run: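 Read-out: visual absence of growth. The lowest concentration meeting this gives the MIC, expressed in μg/mL, with microbroth dilution as the method.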

K. pneumoniae MXX1232 = assay: Antibacterial activity, MIC, resistant strain (Table 4); assay type: cell-based; conditions: Klebsiella pneumoniae, MXX1232; resistant K. pneumoniae MMX1232, multi-drug resistant clinical isolate; read-out: MIC, MMX1232
How it was run: as §1

A. baumannii MXX2240 = assay: as above; assay type: cell-based; conditions: Acinetobacter baumannii, MXX2240; resistant A. baumannii MMX2240, multi-drug resistant clinical isolate; read-out: MIC, MMX2240
How it was run: as §1

[6] = tested on: Moraxella catarrhalis (M. catarrhalis) 25238; assay: Antibacterial activity, MIC (Table 7); assay type: cell-based
How it was run: as §2

[7] = tested on: Neisseria meningitidis (N. meningitidis) 13090; assay: Antibacterial activity, MIC (Table 8); assay type: cell-based
How it was run: as §2

[8] = tested on: Pseudomonas aeruginosa (P. aeruginosa) 27853; assay: Antibacterial activity, MIC (Table 5); assay type: cell-based; conditions: P. aeruginosa 27853, read-out: MIC, 27853
How it was run: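 Microbroth dilution; MIC (μg/mL) = lowest concentration with no macroscopically visible growth.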

E. coli ELZ4251 = assay: Antibacterial activity, MIC, multi-drug resistant clinical isolate (Table 3); assay type: cell-based; conditions: Escherichia coli
How it was run: (§3)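 MIC (μg/mL) read as lowest concentration with no macroscopically visible growth, determined by microbroth dilution.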

E. coli ELZ4000 = assay: as above; assay type: cell-based; conditions: Escherichia coli, ELZ4000, read-out: MIC ELZ4000
How it was run: as §3

SMILES	MIC [1] [µg/mL]	MIC [2] [µg/mL]	MIC (E. coli LZ3111) [µg/mL]	MIC [3] [µg/mL]	MIC (E. coli 25922) [µg/mL]	MIC [4] [µg/mL]	MIC [5] [µg/mL]	MIC (K. pneumoniae MXX1232) [µg/mL]	MIC (A. baumannii MXX2240) [µg/mL]	MIC [6] [µg/mL]	MIC [7] [µg/mL]	MIC [8] [µg/mL]	MIC (E. coli ELZ4251) [µg/mL]	MIC (E. coli ELZ4000) [µg/mL]
CCc1c(-c2ccc3c(c2)cc(CN2C[C@H]4CCC[C@@H](N(C)C)[C@H]4C2)n3C)[nH]c(=O)c(C(=O)O)c1O [Cpd 279, 6-(2-(((3aR,4R,7aS)-4-(dimethylamino)-1H-isoindol-2(3H,3aH,4H,5H,6H,7H,7aH)-yl)methyl)-1-methyl-1H-indol-5-yl)-5-ethyl-4-hydroxy-2-oxo-1,2-dihydropyridine-3-carboxylic acid]	1 to 3.5 (≈ 2.03 to 7.1 µM)	1 to 3.5 (≈ 2.03 to 7.1 µM)	1 to 3.5 (≈ 2.03 to 7.1 µM)	1 to 3.5 (≈ 2.03 to 7.1 µM)	1 to 3.5 (≈ 2.03 to 7.1 µM)	3.5 to 12.5 (≈ 7.1 to 25.4 µM)	< 1	12.5 to 150 (≈ 25.4 to 304 µM)	12.5 to 150 (≈ 25.4 to 304 µM)	1 to 3.5 (≈ 2.03 to 7.1 µM)	< 1	12.5 to 150 (≈ 25.4 to 304 µM)	12.5 to 150 (≈ 25.4 to 304 µM)	12.5 to 150 (≈ 25.4 to 304 µM)
CCc1c(-c2ccc3c(c2)cc(CN2C[C@H]4CCC[C@@H](NC)[C@H]4C2)n3C)[nH]c(=O)c(C(=O)O)c1O [Cpd 282, 5-ethyl-4-hydroxy-6-(1-methyl-2-(((3aR,4R,7aS)-4-(methylamino)-1H-isoindol-2(3H,3aH,4H,5H,6H,7H,7aH)-yl)methyl)-1H-indol-5-yl)-2-oxo-1,2-dihydropyridine-3-carboxylic acid]	1 to 3.5 (≈ 2.09 to 7.31 µM)	12.5 to 150 (≈ 26.1 to 313 µM)	1 to 3.5 (≈ 2.09 to 7.31 µM)	1 to 3.5 (≈ 2.09 to 7.31 µM)	< 1	12.5 to 150 (≈ 26.1 to 313 µM)	< 1	12.5 to 150 (≈ 26.1 to 313 µM)	12.5 to 150 (≈ 26.1 to 313 µM)	3.5 to 12.5 (≈ 7.31 to 26.1 µM)	1 to 3.5 (≈ 2.09 to 7.31 µM)	12.5 to 150 (≈ 26.1 to 313 µM)	3.5 to 12.5 (≈ 7.31 to 26.1 µM)	12.5 to 150 (≈ 26.1 to 313 µM)
CCc1c(-c2ccc3c(c2)cc(CN2C[C@H]4C[C@@H](N(C)C)C[C@H]4C2)n3C)[nH]c(=O)c(C(=O)O)c1O [Cpd 285, 6-(2-(((3aR,5r,6aS)-5-(dimethylamino)hexahydrocyclopenta[c]pyrrol-2(1H)-yl)methyl)-1-methyl-1H-indol-5-yl)-5-ethyl-4-hydroxy-2-oxo-1,2-dihydropyridine-3-carboxylic acid]	1 to 3.5 (≈ 2.09 to 7.31 µM)	3.5 to 12.5 (≈ 7.31 to 26.1 µM)	1 to 3.5 (≈ 2.09 to 7.31 µM)	1 to 3.5 (≈ 2.09 to 7.31 µM)	1 to 3.5 (≈ 2.09 to 7.31 µM)	12.5 to 150 (≈ 26.1 to 313 µM)	< 1	12.5 to 150 (≈ 26.1 to 313 µM)	12.5 to 150 (≈ 26.1 to 313 µM)	1 to 3.5 (≈ 2.09 to 7.31 µM)	< 1	12.5 to 150 (≈ 26.1 to 313 µM)	3.5 to 12.5 (≈ 7.31 to 26.1 µM)	12.5 to 150 (≈ 26.1 to 313 µM)
CCc1c(-c2ccc3c(c2)cc(CN)n3C)[nH]c(=O)c(C(=O)O)c1O [Cpd 290, 6-(2-(aminomethyl)-1-methyl-1H-indol-5-yl)-5-ethyl-4-hydroxy-2-oxo-1,2-dihydropyridine-3-carboxylic acid]	3.5 to 12.5 (≈ 10.3 to 36.6 µM)	1 to 3.5 (≈ 2.93 to 10.3 µM)	1 to 3.5 (≈ 2.93 to 10.3 µM)	1 to 3.5 (≈ 2.93 to 10.3 µM)	< 1	3.5 to 12.5 (≈ 10.3 to 36.6 µM)	< 1	12.5 to 150 (≈ 36.6 to 439 µM)	12.5 to 150 (≈ 36.6 to 439 µM)	1 to 3.5 (≈ 2.93 to 10.3 µM)	< 1	1 to 3.5 (≈ 2.93 to 10.3 µM)	3.5 to 12.5 (≈ 10.3 to 36.6 µM)	3.5 to 12.5 (≈ 10.3 to 36.6 µM)
CCc1c(-c2ccc3c(c2)cc(CNCc2ccc(OC)cc2)n3C)[nH]c(=O)c(C(=O)O)c1O [Cpd 291, 5-ethyl-4-hydroxy-6-(2-((4-methoxybenzylamino)methyl)-1-methyl-1H-indol-5-yl)-2-oxo-1,2-dihydropyridine-3-carboxylic acid]	3.5 to 12.5 (≈ 7.58 to 27.1 µM)	1 to 3.5 (≈ 2.17 to 7.58 µM)	1 to 3.5 (≈ 2.17 to 7.58 µM)	< 1	< 1	3.5 to 12.5 (≈ 7.58 to 27.1 µM)	< 1	12.5 to 150 (≈ 27.1 to 325 µM)	1 to 3.5 (≈ 2.17 to 7.58 µM)	< 1	< 1	12.5 to 150 (≈ 27.1 to 325 µM)	12.5 to 150 (≈ 27.1 to 325 µM)	12.5 to 150 (≈ 27.1 to 325 µM)
CCc1c(-c2ccc3c(c2)cc2n3CCNC2)[nH]c(=O)c(C(=O)O)c1O [Cpd 305, 5-ethyl-4-hydroxy-2-oxo-6-(1,2,3,4-tetrahydropyrazino[1,2-a]indol-8-yl)-1,2-dihydropyridine-3-carboxylic acid]	< 1	1 to 3.5 (≈ 2.83 to 9.9 µM)	3.5 to 12.5 (≈ 9.9 to 35.4 µM)	< 1	< 1	3.5 to 12.5 (≈ 9.9 to 35.4 µM)	< 1	12.5 to 150 (≈ 35.4 to 424 µM)	12.5 to 150 (≈ 35.4 to 424 µM)	< 1	< 1	3.5 to 12.5 (≈ 9.9 to 35.4 µM)	3.5 to 12.5 (≈ 9.9 to 35.4 µM)	12.5 to 150 (≈ 35.4 to 424 µM)
Cc1c(-c2ccc3c(c2)cc(CN(C)C)n3C)[nH]c(=O)c(C(=O)O)c1O [Cpd 314, 6-(2-((dimethylamino)methyl)-1-methyl-1H-indol-5-yl)-4-hydroxy-5-methyl-2-oxo-1,2-dihydropyridine-3-carboxylic acid]	3.5 to 12.5 (≈ 9.85 to 35.2 µM)	3.5 to 12.5 (≈ 9.85 to 35.2 µM)	1 to 3.5 (≈ 2.81 to 9.85 µM)	1 to 3.5 (≈ 2.81 to 9.85 µM)	3.5 to 12.5 (≈ 9.85 to 35.2 µM)	12.5 to 150 (≈ 35.2 to 422 µM)	< 1	12.5 to 150 (≈ 35.2 to 422 µM)	1 to 3.5 (≈ 2.81 to 9.85 µM)	3.5 to 12.5 (≈ 9.85 to 35.2 µM)	< 1	12.5 to 150 (≈ 35.2 to 422 µM)	1 to 3.5 (≈ 2.81 to 9.85 µM)	3.5 to 12.5 (≈ 9.85 to 35.2 µM)
Cc1c(-c2ccc3c(c2)cc(CNCC2CC2)n3C)[nH]c(=O)c(C(=O)O)c1O [Cpd 315, 6-(2-((cyclopropylmethylamino)methyl)-1-methyl-1H-indol-5-yl)-4-hydroxy-5-methyl-2-oxo-1,2-dihydropyridine-3-carboxylic acid]	1 to 3.5 (≈ 2.62 to 9.18 µM)	1 to 3.5 (≈ 2.62 to 9.18 µM)	< 1	1 to 3.5 (≈ 2.62 to 9.18 µM)	1 to 3.5 (≈ 2.62 to 9.18 µM)	12.5 to 150 (≈ 32.8 to 393 µM)	< 1	12.5 to 150 (≈ 32.8 to 393 µM)	1 to 3.5 (≈ 2.62 to 9.18 µM)	3.5 to 12.5 (≈ 9.18 to 32.8 µM)	< 1	12.5 to 150 (≈ 32.8 to 393 µM)	< 1	1 to 3.5 (≈ 2.62 to 9.18 µM)
Cc1c(-c2ccc3c(c2)cc(CN2CCC2)n3C)[nH]c(=O)c(C(=O)O)c1O [Cpd 316, 6-(2-(azetidin-1-ylmethyl)-1-methyl-1H-indol-5-yl)-4-hydroxy-5-methyl-2-oxo-1,2-dihydropyridine-3-carboxylic acid]	3.5 to 12.5 (≈ 9.53 to 34 µM)	3.5 to 12.5 (≈ 9.53 to 34 µM)	< 1	1 to 3.5 (≈ 2.72 to 9.53 µM)	1 to 3.5 (≈ 2.72 to 9.53 µM)	12.5 to 150 (≈ 34 to 408 µM)	< 1	12.5 to 150 (≈ 34 to 408 µM)	1 to 3.5 (≈ 2.72 to 9.53 µM)	3.5 to 12.5 (≈ 9.53 to 34 µM)	12.5 to 150 (≈ 34 to 408 µM)	12.5 to 150 (≈ 34 to 408 µM)	3.5 to 12.5 (≈ 9.53 to 34 µM)	3.5 to 12.5 (≈ 9.53 to 34 µM)
CNCc1cc2cc(-c3[nH]c(=O)c(C(=O)O)c(O)c3C)ccc2n1C [Cpd 317, 4-hydroxy-5-methyl-6-(1-methyl-2-((methylamino)methyl)-1H-indol-5-yl)-2-oxo-1,2-dihydropyridine-3-carboxylic acid]	1 to 3.5 (≈ 2.93 to 10.3 µM)	3.5 to 12.5 (≈ 10.3 to 36.6 µM)	< 1	1 to 3.5 (≈ 2.93 to 10.3 µM)	1 to 3.5 (≈ 2.93 to 10.3 µM)	12.5 to 150 (≈ 36.6 to 439 µM)	< 1	3.5 to 12.5 (≈ 10.3 to 36.6 µM)	1 to 3.5 (≈ 2.93 to 10.3 µM)	3.5 to 12.5 (≈ 10.3 to 36.6 µM)	< 1	12.5 to 150 (≈ 36.6 to 439 µM)	< 1	1 to 3.5 (≈ 2.93 to 10.3 µM)
